Reference: patent US8956824B2, “Methods for identifying allosteric modulators of ship polypeptides” (British Columbia Cancer Agency Branch, priority 2006, dated 2015)

System: SHIP1+/+ and SHIP1−/− BMmφs
Assay: LPS-stimulated PKB phosphorylation in BMmφs (immunoblot)
Format: cell-based, mouse
Conditions: 30 min pretreatment, 10 ng/mL LPS 15 min
Description: LPS stimulation of BMmφs. For the analysis of LPS-stimulated TNFα production, 2 ×10^5 cells were plated the night before in 24 well plates in BMmφp medium. The next day, the medium was changed and AQX-016A or carrier was added to cells at the indicated concentrations for 30 min prior to the addition of 10 ng/mL LPS. Supernatants were collected after 1 hr for TNFα determination by ELISA (BD Biosciences, Mississauga, ON, Canada). Data are expressed as the mean +/− SEM of triplicates and experiments were repeated 3 times. For analysis of intracellular signaling, 2×10^6 cells were plated the night before in 6 cm tissue culture plates. The next day, the cells were cultured in BMmφp medium without M-CSF for 1 hr at 37° C. and then pretreated with AQX-016A or carrier for 30 min prior to the addition of 10 ng/mL LPS for 15 min. Cells were washed with 4° C. PBS and resuspended in lysis buffer (50 mM Hepes, 2 mM EDTA, 1mM NaVO4 , 100 mM NaF, 50 mM NaPPi and 1%NP4O) supplemented with COMPLETE™ Protease Inhibitor Cocktail (Roche, Montreal, Canada). Lysates were rocked at 4° C. for 30 min and clarified by centrifuging 20 min at 12000×g. Lysates were then made 1× in Laemmli's buffer, boiled 2 min and loaded onto 7.5% SDS polyacrylamide cells. […]

Question: With `Cc1cc(O)c(O)c2c1[C@]1(C)CC[C@H]3C(C)(C)CCC[C@]3(C)[C@H]1C2` [AQX-016A] as the compound, how does the “LPS-stimulated PKB phosphorylation, SHIP1+/+ vs SHIP1−/− BMmφs” value read?
Answer: The value was “preferentially inhibited, in a dose dependent manner, LPS-stimulated PKB phosphorylation in SHIP1+/+ but not in SHIP1−/−”.
